{"source": "patent US4822774A", "about": "“Physiologically active peptide” (Eisai Co., Ltd., priority 1986, dated 1989)"}
{"tested_on": "Muscle of Bronchus Removed from Guinea Pig", "details": "guinea pig trachea, 6.5×10^-6 M histamine; samples at 10^-5 M; area value of VIP--NH2 taken as 100 %", "source_text": "A. Determination on Relaxation of Muscle of Bronchus Removed from Guinea Pig\nThe juglar vein of a male guinea pig weighing 300 g or more is cut, causing the guinea pig to be bled to death. The guinea pig undergoes thoracotomy. Immediately after the thoracotomy, 3 cm of the trachea is taken out. The trachea is immediately put in a Krebs solution. It is then cut into seven equal rings, and the cartilages are connected to one another with a cotton yarn to form a chain. Subsequently, the smooth muscle parts and cartilages opposite them are cut, so that the smooth muscle parts can be connected to one another. The preparation thus prepared is placed in an isothermic glass cell having an internal capacity of about 7 ml and suspended from above. The lower part of the preparation is fixed, while the upper part is connected to an isometric transducer, to which 0.5 g of a load has been applied, in order to determine the relaxation reaction. Sufficient amounts of 95 % oxygen and 5 % carbon dioxide gas are blown into the preparation. Further, a Krebs solution of 37° C. containing 6.5×10^-6 M histamine is dropped on the preparation from above at a flow rate of 3.3 ml/min. The relaxation reaction takes place to an extent proportional to the amount of a sample added to the dropped solution. By utilizing this relationship, the relaxation activity against bronchial smooth muscle with respect to the substance of the present invention is compared with that of VIP--NH2. VIP--NH2 is used at a concentration of 10^-5 M and dropped in amounts of 40 μl and 80 μl. The substance of the present invention is also used at a concentration of 10^- 5 M and dropped in amounts of 10 μl and 20 μl. The value of the area (height×time) in relaxation of each case is determined. The specific activities are obtained by taking the area value of VIP--NH2 as 100 % and determining the relative ratio of the area value of each use. Thus, the relaxation reactions are compared by the four-point assay method, with respect to the above-mentioned determination method, reference may be made to the following articles (e) and (f): […]", "units": {"A: specific activity (%) obtained by method A (relaxation of bronchial smooth muscle, area value relative to VIP-NH2)": "%"}}
{"smiles": "CC[C@H](C)[C@H](NC(=O)[C@H](CO)NC(=O)[C@H](CC(N)=O)NC(=O)[C@H](CC(C)C)NC(=O)[C@H](Cc1ccc(O)cc1)NC(=O)[C@H](CCCCN)NC(=O)[C@H](CCCCN)NC(=O)[C@@H](NC(=O)[C@H](C)NC(=O)[C@H](CCSC)NC(=O)[C@H](CCC(N)=O)NC(=O)[C@H](CCCCN)NC(=O)[C@H](CCCNC(=N)N)NC(=O)[C@H](CC(C)C)NC(=O)[C@H](CCCNC(=N)N)NC(=O)[C@@H](NC(=O)[C@H](Cc1ccc(O)cc1)NC(=O)[C@H](CC(N)=O)NC(=O)[C@H](CC(=O)O)NC(=O)[C@@H](NC(=O)[C@H](Cc1ccccc1)NC(=O)[C@@H](NC(=O)[C@H](C)NC(=O)[C@H](CC(=O)O)NC(=O)[C@H](CO)NC(=O)[C@@H](N)Cc1c[nH]cn1)C(C)C)[C@@H](C)O)[C@@H](C)O)C(C)C)C(=O)N[C@@H](CC(C)C)C(=O)N[C@@H](CC(N)=O)C(N)=O", "note": "[VIP - NH2]", "A: specific activity (%) obtained by method A (relaxation of bronchial smooth muscle, area value relative to VIP-NH2)": 100}
{"smiles": "CC[C@H](C)[C@H](NC(=O)[C@H](CO)NC(=O)[C@H](CC(N)=O)NC(=O)[C@H](CC(C)C)NC(=O)[C@H](Cc1ccc(O)cc1)NC(=O)[C@H](CCCCN)NC(=O)[C@H](CCCCN)NC(=O)[C@@H](NC(=O)[C@H](C)NC(=O)[C@H](CCSC)NC(=O)[C@H](CCC(N)=O)NC(=O)[C@H](CCCCN)NC(=O)[C@H](CCCNC(=N)N)NC(=O)[C@H](CC(C)C)NC(=O)[C@H](CCCNC(=N)N)NC(=O)[C@@H](NC(=O)[C@H](Cc1ccc(O)cc1)NC(=O)[C@H](CC(N)=O)NC(=O)[C@H](CC(=O)O)NC(=O)[C@@H](NC(=O)[C@H](Cc1ccccc1)NC(=O)[C@@H](NC(=O)[C@H](C)NC(=O)[C@H](CC(=O)O)NC(=O)[C@H](CO)NC(=O)[C@@H](N)Cc1c[nH]cn1)C(C)C)[C@@H](C)O)[C@@H](C)O)C(C)C)C(=O)N[C@@H](CC(C)C)C(=O)N[C@@H](CC(N)=O)C(=O)O", "note": "[VIP - OH]", "A: specific activity (%) obtained by method A (relaxation of bronchial smooth muscle, area value relative to VIP-NH2)": 60}
{"smiles": "CC[C@H](C)[C@H](NC(=O)[C@H](CO)NC(=O)[C@H](CC(N)=O)NC(=O)[C@H](CC(C)C)NC(=O)[C@H](Cc1ccc(O)cc1)NC(=O)[C@H](CCCCN)NC(=O)[C@H](CCCCN)NC(=O)[C@@H](NC(=O)[C@H](C)NC(=O)[C@H](CCSC)NC(=O)[C@H](CCC(N)=O)NC(=O)[C@H](CCCCN)NC(=O)[C@H](CCCNC(=N)N)NC(=O)[C@H](CC(C)C)NC(=O)[C@H](CCCNC(=N)N)NC(=O)[C@@H](NC(=O)[C@H](Cc1ccc(O)cc1)NC(=O)[C@H](CC(N)=O)NC(=O)[C@H](CC(=O)O)NC(=O)[C@@H](NC(=O)[C@H](Cc1ccccc1)NC(=O)[C@@H](NC(=O)[C@H](C)NC(=O)[C@H](CC(=O)O)NC(=O)[C@H](CO)NC(=O)[C@@H](N)Cc1c[nH]cn1)C(C)C)[C@@H](C)O)[C@@H](C)O)C(C)C)C(=O)N[C@@H](CC(C)C)C(=O)N[C@@H](CC(N)=O)C(=O)NCC(=O)N[C@@H](CCCCN)C(=O)O", "note": "[X=Met Y=Lys--OH]", "A: specific activity (%) obtained by method A (relaxation of bronchial smooth muscle, area value relative to VIP-NH2)": 300}
